Series [1] is described as follows: Solubility. It is filed as physicochemical.
The nature of series [2]: Chemical stability in buffer or water. The series is classed as physicochemical. To be noted: 0.02 M acetate. The procedure:
The compound was subjected to stability studies according to the following procedures.
(§1) Stabilities of derivatives at various pHs were studied at 25° and 37°. The plasma studies were conducted at 37° in rat and human plasma. Human plasma was obtained from Watkins Hospital and rat plasma was obtained from the Animal Care Unit of the University of Kansas. The derivative concentration used was around 20-25 μg/ml. A stock solution of the compound was prepared at 0.8-1.0 mg/mL and was added to plasma to give the desired concentration (20-25 μg/mL). One hundred microliter samples were removed and was quenched with 250 uL. acetonitrile and centrifuged to precipitate the plasma proteins. The degradation kinetics were studied by HPLC plotting peak area vs. time. The t90 and t50 were calculated. Both chemical and plasma studies were followed by high performance liquid chromatography using a RP-8 column (15 cm) and a precolumn (5 cm). The detector was set at 227 nm. The mobile phase consisted of 0.02M acetate (pH 5): acetonitrile 50:50 or 35:65 and the flow rate ranged from 1-1.5 mL/min or the same solvents containing 0.001M tetrabutylammoniumydrogensulphate and a flow rate of 1 mL/min.
The identity of this peak was further confirmed by the degradation studies of the new derivatives. Thus, 2'(DMG) taxol was incubated with water at 37° and the product was concentrated and purified by preparative TLC. The product after purification was analyzed by HPLC and spectroscopic methods.

Series [3] is described as follows: Plasma stability, human plasma. The series is classed as in vitro ADME. To be noted: human plasma (20 μg/mL), 37° C. The procedure:
as §1, with “The derivative concentration used was around 20-25 μg/ml. A stock solution of the compound was prepared at 0.8-1.0 mg/mL and was added to plasma to give the desired concentration (20-25 μg/mL).” left out

Where a name gives a salt, the structure may show the parent alone. Read-outs that look alike come from different tables or passages of the source.

The values below come from patent US4960790A, “Derivatives of taxol, pharmaceutical compositions thereof and methods for the preparation thereof” (University of Kansas, priority 1989, dated 1990).

As usually defined, the solubility is the concentration that dissolves in the medium under given conditions. The term half-life denotes the time in which the quantity being followed falls by half. Low values mean rapid decline, high ones slow decline.

With `CCN(CC)CCC(=O)O[C@@H](C(=O)O[C@H]1C[C@@]2(O)[C@@H](OC(=O)c3ccccc3)[C@@H]3[C@]4(OC(C)=O)CO[C@@H]4C[C@H](O)[C@@]3(C)C(=O)[C@H](OC(C)=O)C(=C1C)C2(C)C)[C@@H](NC(=O)c1ccccc1)c1ccccc1` [Compound 4, Methanesulphonic acid salt of 2'(N,N-diethylaminopropionyl)taxol], the solubility in series [1] is more than 10000 µg/mL. For the same compound, the half-life in series [2] (pH 4.5, 25° C.) was 305 h; in series [2] (pH 5.5, 25° C.), 20.7 h.

Take `CC(=O)O[C@H]1C(=O)[C@]2(C)[C@@H](OC(=O)CN(C)C)C[C@H]3OC[C@@]3(OC(C)=O)[C@H]2[C@H](OC(=O)c2ccccc2)[C@]2(O)C[C@H](OC(=O)[C@H](OC(=O)CN(C)C)[C@@H](NC(=O)c3ccccc3)c3ccccc3)C(C)=C1C2(C)C` [dimethanesulphonic acid salt of 2'7-(N,N-dimethylglycyl)taxol]: the solubility in series [1] (read-out: Solubility) was more than 10000 µg/mL.

On to `CC(=O)O[C@H]1C(=O)[C@]2(C)[C@@H](OC(=O)[C@H](C)N)C[C@H]3OC[C@@]3(OC(C)=O)[C@H]2[C@H](OC(=O)c2ccccc2)[C@]2(O)C[C@H](OC(=O)[C@H](O)[C@@H](NC(=O)c3ccccc3)c3ccccc3)C(C)=C1C2(C)C` [Methanesulphonic acid salt of 7-(alanyl)taxol], for which the solubility in series [1] (read-out: Solubility) was more than 2000 µg/mL. Further, the half-life in series [3] was 11.9 h.
